Experimental data: patent US10752647B2, “N-phosphonoxymethyl prodrugs of hydroxyalkyl thiadiazole derivatives” (DAIICHI SANKYO COMPANY, LIMITED, priority 2017, dated 2020)

Assays:
Format in all cases: in vivo
[1] = Conversion efficiency / PK profile after IV dose in dogs; settings: Dog, plasma, parent compound IV 1 mg/kg; read-out: Parent compound AUCinf
Description: (§1) Method of Testing Conversion Efficiency Determination of conversion efficiency of Compound No. 1 and Compound No. 2 was conducted in rodents (mice and rats) and non-rodents (monkeys and dogs). Animals were divided in two groups with two animals in each group. One group received an intravenous (IV) dose of prodrug and the other group received an IV dose of parent compound. The dose of prodrug was taken as molar equivalent dose of parent compound. Serial blood sampling was carried out at 0.083, 0.33, 1, 2, 4, 8 and 24 h post IV dose from both the animal groups. Blood samples were centrifuged to harvest plasma. Plasma samples were stored at −80° C. until analysis. Plasma samples of prodrug administered animals were simultaneously analyzed for both analytes (prodrug and parent compound) using LC-MS/MS. Area under the curve (AUC) of plasma concentrations versus time profiles were calculated in WinNonlin software and percentage conversion efficiency was determined using the formula: Percentage conversion efficiency=(AUCiv of parent compound (from prodrug administered samples)×100/(AUCiv of parent compound (from parent compound administered samples). PK profile of Compounds No. 1 and No. 2 in rats, dogs and monkeys are depicted in Table 5 and 6, respectively (also shown in FIGS. 1 and 2).

[2] = Conversion efficiency / PK profile after IV dose in monkeys; settings: Monkey, plasma, parent compound IV 1 mg/kg; read-out: Parent compound AUCinf
Description: as §1

[3] = Conversion efficiency / PK profile after IV dose in rats (Compounds No. 1 and No. 2); settings: Rat, plasma, parent compound IV 12.5 mg/kg; read-out: Parent compound AUCinf
Description: as §1

Compound: CCc1[nH]c(C(=O)N[C@@H]2CCN(c3nnc(C(C)(C)O)s3)C[C@@H]2OC)nc1Cl [Parent compound of Compound No. 1, 4-chloro-5-ethyl-N-{(3S,4R)-1-[5-(1-hydroxy-1-methylethyl)-1,3,4-thiadiazol-2-yl]-3-methoxypiperidin-4-yl}-1H-imidazole-2-carboxamide]
- AUC(0-inf) [1]: 29400 ng·h/mL
- AUC(0-inf) [2]: 6250 ng·h/mL
- AUC(0-inf) [3]: 17700 ng·h/mL
